# Entries after “also recorded” stand apart in the source; their conditions may differ.
# Experiments:
# Hst2 [1] = target: T1, Hst2 (Saccharomyces cerevisiae, UniProt P53686); assay: biochemical; type: biochemical; conditions: for inhibition of Hst2 deacetylation by scaffold analogs (in words): SAR discussion; for activity at 50 µM: read-out: % Activity at 50 μM; for activity at 500 µM: read-out: % Activity at 500 μM
# Hst2 [2] = target: T1, Hst2; assay: biochemical; conditions: for IC50 (Table 5, scaffold 12 analogs, Hst2): Hst2 fluorigenic assay
# Hst2 [3] = target: T1, Hst2; assay: Reversibility assay; type: biochemical; conditions: Hst2 incubated with 10× IC50 of inhibitor, then 100-fold dilution
# Hst2 [4] = target: T1, Hst2; assay: Competition assay; type: biochemical; conditions: for α: mixed inhibition model
# human SIRT3 = target: T2, human SIRT3 (Homo sapiens, UniProt Q9NTG7); assay: Inhibition of a panel of human sirtuin homologues: SIRT3; type: biochemical
# T2 sequence (Q9NTG7 1-399): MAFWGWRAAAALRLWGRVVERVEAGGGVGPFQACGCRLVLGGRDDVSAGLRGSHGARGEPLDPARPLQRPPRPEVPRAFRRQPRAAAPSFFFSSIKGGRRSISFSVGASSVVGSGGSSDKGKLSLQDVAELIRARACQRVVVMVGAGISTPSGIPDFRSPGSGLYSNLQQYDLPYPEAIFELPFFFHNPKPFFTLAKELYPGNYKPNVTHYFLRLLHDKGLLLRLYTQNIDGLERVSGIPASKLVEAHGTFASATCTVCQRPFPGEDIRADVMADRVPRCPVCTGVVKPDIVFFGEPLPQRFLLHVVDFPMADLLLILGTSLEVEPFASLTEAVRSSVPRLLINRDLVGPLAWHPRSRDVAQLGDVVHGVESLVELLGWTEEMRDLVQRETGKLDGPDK
# human SIRT2 = target: T3, human SIRT2 (Homo sapiens, UniProt Q8IXJ6); assay: Inhibition of a panel of human sirtuin homologues: SIRT2; type: biochemical
# T3 sequence (Q8IXJ6 1-352 isoform Q8IXJ6-2): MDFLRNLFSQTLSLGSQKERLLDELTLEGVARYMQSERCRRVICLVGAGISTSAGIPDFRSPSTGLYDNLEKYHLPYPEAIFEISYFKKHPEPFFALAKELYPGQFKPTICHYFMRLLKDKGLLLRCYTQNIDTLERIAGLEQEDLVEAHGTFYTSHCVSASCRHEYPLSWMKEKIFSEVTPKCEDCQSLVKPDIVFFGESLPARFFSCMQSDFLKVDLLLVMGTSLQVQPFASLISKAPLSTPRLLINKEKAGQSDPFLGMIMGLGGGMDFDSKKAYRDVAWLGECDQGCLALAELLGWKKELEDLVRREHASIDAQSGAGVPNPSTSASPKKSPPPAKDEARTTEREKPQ
# [5] = target: T4, full length human SIRT1 (FL SIRT1) (Homo sapiens, UniProt Q96EB6); assay: Fluorigenic
# T4 sequence (Q96EB6 1-747): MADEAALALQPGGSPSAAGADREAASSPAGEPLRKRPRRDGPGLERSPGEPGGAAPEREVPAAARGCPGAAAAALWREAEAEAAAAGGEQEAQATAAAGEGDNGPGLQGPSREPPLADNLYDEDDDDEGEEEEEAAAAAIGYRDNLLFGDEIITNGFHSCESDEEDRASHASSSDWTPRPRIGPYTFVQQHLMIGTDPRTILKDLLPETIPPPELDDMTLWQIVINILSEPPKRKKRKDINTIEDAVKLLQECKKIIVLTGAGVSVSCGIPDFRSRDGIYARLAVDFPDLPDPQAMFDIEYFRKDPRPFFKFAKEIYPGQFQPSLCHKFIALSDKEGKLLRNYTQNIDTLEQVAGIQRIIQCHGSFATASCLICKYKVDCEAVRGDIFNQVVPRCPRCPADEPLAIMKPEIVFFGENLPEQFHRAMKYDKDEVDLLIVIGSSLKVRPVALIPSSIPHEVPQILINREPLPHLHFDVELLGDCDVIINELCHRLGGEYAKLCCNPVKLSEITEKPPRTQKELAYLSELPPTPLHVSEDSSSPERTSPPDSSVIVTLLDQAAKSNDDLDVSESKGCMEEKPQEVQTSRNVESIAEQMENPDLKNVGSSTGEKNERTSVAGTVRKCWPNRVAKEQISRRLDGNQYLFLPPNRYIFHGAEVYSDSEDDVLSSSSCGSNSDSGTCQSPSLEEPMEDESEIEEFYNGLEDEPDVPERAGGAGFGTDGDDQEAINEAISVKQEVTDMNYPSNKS
# T1 sequence (P53686 1-294): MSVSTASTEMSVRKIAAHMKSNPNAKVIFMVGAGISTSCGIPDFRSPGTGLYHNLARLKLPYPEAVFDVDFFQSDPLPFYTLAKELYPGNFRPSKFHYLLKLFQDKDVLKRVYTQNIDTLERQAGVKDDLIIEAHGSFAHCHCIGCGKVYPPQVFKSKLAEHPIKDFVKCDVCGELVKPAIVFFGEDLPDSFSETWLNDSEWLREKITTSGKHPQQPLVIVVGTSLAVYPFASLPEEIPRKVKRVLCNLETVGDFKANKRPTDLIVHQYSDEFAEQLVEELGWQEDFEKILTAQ
structure (smiles),measurement,setting,value
Cc1ccc(OCCCC(=O)Oc2ccc3c(c2)CCC3)c(C)c1 [Compound 7985301],inhibition of Hst2 deacetylation by scaffold analogs (in words),Hst2 [1],significantly reduced potency
O=C1c2ccccc2C(=O)N1CCBr [Compound 91032],"IC50 (Table 5, scaffold 12 analogs, Hst2)",Hst2 [2],No inhibition
COc1ccc(OCCCC(=O)Oc2ccc3c(c2)CCC3)cc1 [Compound 6978945],inhibition of Hst2 deacetylation by scaffold analogs (in words),Hst2 [1],significantly reduced potency
O=C(O)CCN1C(=O)c2cc(Cl)c(Cl)cc2C1=O [Compound 39008],"IC50 (Table 5, scaffold 12 analogs, Hst2)",Hst2 [2],No inhibition
COCC#CC1c2cc(O)c(OC)cc2CCN1Cc1ccc(OC)cc1 (centres unmarked) [Compound 14b],activity at 50 µM,Hst2 [1],92%
same,activity at 500 µM,Hst2 [1],2%
C[S+]([O-])CCC(C(=O)O)N1C(=O)c2ccccc2C1=O (centres unmarked) [Compound 00032],"IC50 (Table 5, scaffold 12 analogs, Hst2)",Hst2 [2],No inhibition
"O=C(O)CCN1Cc2ccccc2C1=O [Compound 12, 3-(1-Oxo-1,3-dihydro-isoindol-2-yl)-propionic acid]","slope of progress curve, % of enzyme plus DMSO control",Hst2 [3],96%
same,Inhibition Mechanism,Hst2 [4]; substrate NAD+,fully non-competitive inhibition model; also recorded: NC (full)
same,Inhibition Mechanism,Hst2 [4]; substrate acetyl-lysine,fully non-competitive inhibition model; also recorded: NC (full)
same,inhibition of human SIRT3 (in words),human SIRT3,only weak inhibitory activity
same,inhibition of human SIRT2 (in words),human SIRT2,only weak inhibitory activity
"CCc1ccc(OCCCC(=O)Oc2ccc3c(c2)oc(=O)c2ccccc23)cc1 [Compound 11, 4-(4-Ethyl-phenoxy)-butyric acid 6-oxo-6H-benzo[c]chromen-3-yl ester]","slope of progress curve, % of enzyme plus DMSO control",Hst2 [3],82%
same,Inhibition Mechanism,Hst2 [4]; substrate NAD+,fully non-competitive inhibition model; also recorded: NC (full)
same,Inhibition Mechanism,Hst2 [4]; substrate acetyl-lysine,partial non-competitive inhibition model; also recorded: NC (partial)
same,inhibition of human SIRT3 (in words),human SIRT3,but not SIRT3
same,activity at 50 µM,Hst2 [1],< 1%
same,activity at 500 µM,Hst2 [1],< 1%
same,inhibition of human SIRT2 (in words),human SIRT2,potent inhibitor of SIRT2
"Oc1c(Cl)cc(Cl)c(Cl)c1Cc1c(O)c(Cl)cc(Cl)c1Cl [Compound 13, hexachlorophene]",Ki,"Hst2 [4]; with respect to NAD+ (varied 5-80 μM), acetyl-lysine substrate 100 μM",3.9 ± 0.7 µM
same,Ki,"Hst2 [4]; with respect to acetyl-lysine substrate (varied 3-50 μM), NAD+ 160 μM",2.5 ± 1 µM
same,Inhibition Mechanism,Hst2 [4]; substrate NAD+,fully non-competitive inhibition model; also recorded: NC (full)
same,Inhibition Mechanism,Hst2 [4]; substrate acetyl-lysine,fully mixed inhibition model; also recorded: Mixed (full)
same,α,Hst2 [4]; substrate acetyl-lysine,13.4
same,IC50,Hst2 [2],12.5 ± 0.6 µM
same,IC50,[5],34 ± 10 µM
CCc1ccc(OCCCC(=O)Oc2ccc3c(C)cc(=O)oc3c2)cc1 [Compound 6802623],inhibition of Hst2 deacetylation by scaffold analogs (in words),Hst2 [1],significantly reduced potency
O=C(O)CCCN1C(=O)c2ccccc2C1=O [Compound 47032],"IC50 (Table 5, scaffold 12 analogs, Hst2)",Hst2 [2],No inhibition
Nc1ccc2c(c1)C(=O)N(CCC(=O)O)C2 [Compound 42071],"IC50 (Table 5, scaffold 12 analogs, Hst2)",Hst2 [2],No inhibition
CC(C)C(=O)CCN1C(=O)c2ccccc2C1=O [Compound 04265],"IC50 (Table 5, scaffold 12 analogs, Hst2)",Hst2 [2],No inhibition
Cc1cc(Cc2cc(C)c(O)c(C)c2)cc(C)c1O [Compound 97252],inhibition of Hst2 deacetylation by scaffold analogs (in words),Hst2 [1],most inhibitory activity
O=C(O)CCN1C(=O)c2ccc(-c3nc4ccccc4c(=O)o3)cc2C1=O [Compound 47054],"IC50 (Table 5, scaffold 12 analogs, Hst2)",Hst2 [2],No inhibition
Cc1cccc(OCC(=O)Oc2ccc3c(C)cc(=O)oc3c2)c1 [Compound 5140108],inhibition of Hst2 deacetylation by scaffold analogs (in words),Hst2 [1],showed some deacetylase inhibition
"COCC#CC1c2cc(O)c(OC)cc2CCN1C (centres unmarked) [Compound 14a, 6-Methoxy-1-(3-methoxy-prop-1-ynyl)-2-methyl-1,2,3,4-tetrahydro-isoquinolin-7-ol]",Inhibition Mechanism,Hst2 [4]; substrate NAD+,fully mixed inhibition model; also recorded: Mixed (full)
same,α,Hst2 [4]; substrate NAD+,2.6
same,Inhibition Mechanism,Hst2 [4]; substrate acetyl-lysine,fully non-competitive inhibition model; also recorded: NC (full)
same,inhibition of human SIRT3 (in words),human SIRT3,only weak inhibitory activity
same,inhibition of human SIRT2 (in words),human SIRT2,only weak inhibitory activity

# — paper PMC2929362 (Bioorganic & medicinal chemistry, 2009)
